Data set [1] concerns U87-MG-luc GBM cell line. Put plainly: U87-MG-luc tumors implanted cerebrally in mice, monotherapy. The following applies: 30 mg/kg oral QD, 28 days, p=0.0023 on day 28. It counts as in vivo, athymic nude mice. As to the method:
Male athymic nude mice were injected A) subcutaneously (s.c.) or B) cerebrally (i.e.) with 1×10^5 U87-MG-luc cells in Matrigel. Animals implanted i.e. were imaged to monitor tumor establishment and growth throughout the study using an In Vivo Imaging System (IVIS) once weekly, detecting tumor bioluminescence (BLI) in photons. For animals implanted s.c., tumor growth was monitored twice weekly by caliper measurement and tumor volume calculated using the equation V=(L×W×W)/2, where V is tumor volume, L is tumor length (the longest tumor dimension) and W is tumor width (the longest tumor dimension perpendicular to L). Upon confirmation of tumor establishment, animals were randomly allocated into 3 (A, s.c.) or 2 (B, i.e.) treatment groups (n=8 animals per group) consisting of vehicle (0.5% methycellulose, 1% Tween 80 P.O. and saline I.V.) or Compound of formula (I) [CoF (I)] formulated as a suspension in 0.5% methycellulose and 1% Tween 80. The treatments were administered over a 28 day cycle and compound of formula (I) was administered orally at a dose of either 30 mg/kg (for both A and B) or 60 mg/kg (for A only), once daily (QD)). […] Mortality and observed clinical signs were recorded for individual animals in detail.

Another data set is described as follows: in vivo. Conditions: female, cynomolgus monkey, po. The arrangement: species or system cynomolgus monkeys. The protocol:
Compound of formula (I) was orally given to 3 female cynomolgus monkeys by gavage once a day for 91 days. The volume of administration was 5 mL/kg, and the vehicle was an aqueous solution of 0.5% (w/v) methylcellulose (cps 400) and 1% (w/v) Tween 80. The Compound of formula (I) dose was 10 mg/kg; this dose level was assessed in this study to be the […] no adverse effect level (NOAEL) based on general toxicology evaluation. The animals were necropsied 24 hours after the last dose after an overnight period without food. A sample from brain tissue (left forebrain) was collected from each animal, snap frozen in liquid nitrogen. and stored frozen at <−50° C. Blood samples were taken from the femoral vein into tubes containing K2EDTA, fully inverted approximately 10 times, and placed on crushed wet ice until centrifugation at 2300 g for 10 minutes at approximately 4° C. The resultant plasma was separated, transferred into polypropylene tubes, and frozen at <−50° C. Tissue and plasma samples were transported frozen on dry ice to the respective sites of analysis.

The nature of data set [2]: Plasma, brain and CSF concentrations (PK) in healthy rats after single oral dose. It counts as in vivo, Wistar Han rats. The following applies: 15 mg/kg p.o. single dose; for Kp: 15 mg/kg. As to the method:
Healthy male Wistar Han rats were treated orally with a single dose of 15 mg/kg Compound of formula (I) (24 rats in total, 3 rats per time-point). Compound of formula (I) was formulated as a suspension in 0.5% methylcellulose with 1% Tween 80 and administered at a concentration of 1.5 mg/mL with a dosing volume of 10 mL/kg.
At designated time-points (0.5; 1; 2; 4; 8; 24; 32; 48 hrs post-dose), the rats were euthanized by carbon dioxide inhalation. Thereafter, blood, CSF, and brain samples were collected as follows. Blood samples were collected by cardiac puncture into K2EDTA containing tubes. The tubes were inverted several times, placed on ice and centrifuged within 30 min of collection (4° C. for 5 min at 6000 rpm) to obtain plasma. The plasma samples were snap frozen in dry ice and stored at −80° C. until analysis. The CSF samples were collected by using a scalp-needle to puncture the foramen magnum. The CSF samples were acidified with 10% formic acid (final sample concentration of 0.5% formic acid) and stored in −80° C. until further analysis. The brain was collected, weighed and snap frozen in dry ice until further analysis. To obtain brain homogenates, firstly water was added to each brain (brain weight:water volume=1:4) then the brain was homogenized with a H-speed dispersator (time procedure: homogenizing for 10 s and interval of 10 s per time, total 3-5 times; cleaning procedure for dispersator: Water-Methanol-Ethanol-Water, 10 s each). The brain homogenate samples were transferred to individual tubes and stored at −80° C. prior to analysis.
The samples were analyzed as follows. For each analytical batch of plasma and brain samples, the standard and quality control (QC) samples were freshly prepared in blank male Wistar Han plasma (with K2EDTA anticoagulant) and brain homogenate. Acidified (containing 0.5% formic acid) artificial CSF was used as standard and quality control for the CSF samples. Additionally, one set of blank male Wistar Han CSF was included as QC sample.
To an aliquot of each standard, QC, control blank and study samples, internal standard (^13CD6-Compound of formula (I)) in methanol/acetonitrile (1:1, v/v) was added. The samples were mixed for 1 minute and centrifuged at 4000 rpm at 4° C. for 15 minutes. Supernatants were transferred and diluted in MeOH/water (1:1, v/v, with 0.1% FA) prior to LC-MS/MS injection.
Chromatographic separation was achieved on a Shimadzu LC-20AD (for plasma and brain samples) or Shimadzu LC-30AD (for CSF samples) using a Kinetex 2.6μ C18 100A column (50 mm*3.00 mm; for plasma and brain samples) or an ACE 5 C4 column (50 mm*2.1 mm; for CSF samples). The following conditions were applied: flow rate: 0.7 mL/min; run time: 3.0 min; mobile phase: A: 5 mM NH4OAc (0.1% FA), B: Acetonitrile (0.1% FA).
Detection was accomplished with an AB Sciex 5500 utilizing electrospray MS/MS in positive ion multiple reaction monitoring mode (MRM). The MRM channels were 511.29/98 for Compound of formula (I) and 518.17/102.10 for the internal standard ^13CD6-Compound of formula (I).
The measured plasma, CSF and brain concentrations at each time-point, the nominal sample collection time, and intended dosages were used for pharmacokinetic analysis. The PK parameters of all study compounds were determined by non-compartmental analysis using WinNonlin Version 8.0 (Pharsight).

In data set [3] the test system is U87-MG-luc GBM cell line. Put plainly: U87-MG-luc tumors implanted subcutaneously in mice, monotherapy. Conditions: for Tumor volume vs vehicle controls at end of treatment: subcutaneous, 28 days. The data set is classed as in vivo. As to the method: Male athymic nude mice were injected A) subcutaneously (s.c.) or B) cerebrally (i.e.) with 1×10^5 U87-MG-luc cells in Matrigel. Animals implanted i.e. were imaged to monitor tumor establishment and growth throughout the study using an In Vivo Imaging System (IVIS) once weekly, detecting tumor bioluminescence (BLI) in photons. For animals implanted s.c., tumor growth was monitored twice weekly by caliper measurement and tumor volume calculated using the equation V=(L×W×W)/2, where V is tumor volume, L is tumor length (the longest tumor dimension) and W is tumor width (the longest tumor dimension perpendicular to L). Upon confirmation of tumor establishment, animals were randomly allocated into 3 (A, s.c.) or 2 (B, i.e.) treatment groups (n=8 animals per group) consisting of vehicle (0.5% methycellulose, 1% Tween 80 P.O. and saline I.V.) or Compound of formula (I) [CoF (I)] formulated as a suspension in 0.5% methycellulose and 1% Tween 80. The treatments were administered over a 28 day cycle and compound of formula (I) was administered orally at a dose of either 30 mg/kg (for both A and B) or 60 mg/kg (for A only), once daily (QD)). During routine monitoring, the animals were checked for any effects of tumor growth and treatments on behavior such as mobility, food and water consumption, body weight gain/loss 3 times a week, eye/hair matting and any other abnormalities. Mortality and observed clinical signs were recorded for individual animals in detail.

Read-outs that look alike come from different tables or passages of the source.

A word on the NOAEL: it is the highest tested level that showed no adverse finding. The term Cmax denotes the maximum level reached in the sampled fluid or tissue. Consider `Cc1cc(Nc2ncc3c(n2)N(C)CN(c2c(Cl)cccc2Cl)C3=O)ccc1C1CCN(C)CC1` [Compound of formula (I)], for which, in the data set on U87-MG-luc GBM cell line [1], the “Tumor size (relative BLI) vs vehicle controls at end of treatment” value was “significantly smaller tumors than vehicle controls”. The no observed adverse effect level (NOAEL) at 91 days in “in vivo” amounted to 10 mg/kg. Besides, the “AUCInf, brain” value in data set [2] came to 8415 ng·h/g. Moreover, in data set [2], the “AUCLast, brain” value was 8383 ng·h/g. For the same compound, in data set [2], the “Cmax, CSF” value is 15.6 ng/mL. The “Cmax, brain” value in data set [2] is listed as 588 ng/g. Also, the AUC(0-inf) in data set [2] (male, Wistar Han, rat, CSF, po, read-out: AUCInf, CSF) turned out to be 221 ng·h/mL; in data set [2] (male, Wistar Han, rat, plasma, po, read-out: AUCInf, plasma), 14100 ng·h/mL. Further, the AUC(0-t) is 219 ng·h/mL in data set [2] (male, Wistar Han, rat, CSF, po, read-out: AUCLast, CSF) and 14100 ng·h/mL in data set [2] (male, Wistar Han, rat, plasma, po, read-out: AUCLast, plasma). The Kp came to 0.2 in data set [2] (male, Wistar Han, rat, CSF/unbound plasma, oral, unbound plasma from free fraction 7.8%, read-out: CSF to unbound plasma ratio based on AUCInf); 0.2 in data set [2] (male, Wistar Han, rat, CSF/unbound plasma, oral, unbound plasma from free fraction 7.8%, read-out: CSF to unbound plasma ratio based on AUCLast); 0.18 in data set [2] (male, Wistar Han, rat, CSF/unbound plasma, oral, unbound plasma from free fraction 7.8%, read-out: CSF to unbound plasma ratio based on Cmax); 0.6 in data set [2] (male, Wistar Han, rat, brain/plasma, po, read-out: Brain to plasma ratio based on AUCInf); 0.6 in data set [2] (male, Wistar Han, rat, brain/plasma, po, read-out: Brain to plasma ratio based on AUCLast); 0.52 in data set [2] (male, Wistar Han, rat, brain/plasma, po, read-out: Brain to plasma ratio based on Cmax). This compound also had a maximum concentration (Cmax) in data set [2] (male, Wistar Han, rat, plasma, po) of 1140 ng/mL. Further, the “Body weight loss / tolerability” value in the data set on U87-MG-luc GBM cell line [3] (all dose levels (30 or 60 mg/kg QD, 28 days), s.c. and cerebral models) is reported as “No significant body weight loss”. In addition, the “Tumor volume vs vehicle controls at end of treatment” value with U87-MG-luc GBM cell line [3] (30 mg/kg oral QD, p=0.0009 on day 28) was “significantly smaller tumors than vehicle controls”; in the data set with U87-MG-luc GBM cell line [3] (60 mg/kg oral QD, p<0.0001 on day 28), “significantly smaller tumors than vehicle controls”.

These data come from patent US20260256790A1, “DEBIO-0123 IN COMBINATION WITH TEMOZOLOMIDE AND RADIOTHERAPY FOR USE IN TREATING GLIOMA” (Debiopharm International S.A., priority 2023, published 2026).
